Source: PMC7577153, “Identification of Small-Molecule Inhibitors Targeting Porphyromonas gingivalis Interspecies Adherence and Determination of Their In Vitro and In Vivo Efficacies” (Antimicrobial Agents and Chemotherapy, 2020)
Where two headings read alike, the source gives them in different places. Marks after values point to notes of the source that are not given here.

Assays:
TIGK cells = conditions: 18 h;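 note: flow cytometry of cells stained with PE annexin V plus Sytox green, with untreated or 0.1% DMSO-exposed cells as negative controls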
Method: (§2) The mouse macrophage cell line J774A.1 was grown in Dulbecco’s modified Eagle medium (DMEM) (Thermo Fisher Scientific, Waltham, MA) supplemented with 4.5 g/ml glucose, 10% fetal bovine serum (FBS), and 100 U/ml penicillin-streptomycin (Sigma-Aldrich, St. Louis, MO). HL60 (ATCC CCL240) cells were obtained from the American Type Culture Collection and cultured in Iscove’s modified Dulbecco’s medium (Sigma-Aldrich) supplemented with 20% fetal bovine serum (FBS) (Sigma-Aldrich).
(§3) The apoptotic activity of the compounds was determined using the phycoerythrin (PE) annexin V/dead cell apoptosis kit with Sytox green for flow cytometry (Invitrogen, Carlsbad, CA). Cells were grown in 12-well flat-bottom microtiter plates at an initial density 2 × 10^5 cells in 1.5-ml medium per well for 24 h. Following the incubation period, spent medium was replaced with fresh medium containing the desired concentration of the test compound and incubated for another 18 h. After trypsinization, cells were harvested by centrifuging at 250 × g for 4 min, and the cell pellet was suspended in 100 μl of binding buffer supplemented with 1 μl Sytox and 5 μl annexin V, followed by incubation at 37°C for 15 min. Samples were then diluted by adding 400-μl binding buffer, and flow cytometry was performed using a FACScalibur flow cytometer (Becton, Dickinson, Franklin Lakes, NJ), measuring the fluorescence emissions at 530 nm and 575 nm.

HL60 cells [1] = conditions: 18 h
Method: as §2, §3

[2] = tested on: P. gingivalis adherence to S. gordonii; assay: organism not typed; format: cell-based, Porphyromonas gingivalis; conditions: for dose-dependent inhibition of P. gingivalis adherence and biofilm formation: 5, 10, 15, 25, and 40 μM; for inhibition at 40 µM: read-out: inhibition of P. gingivalis adherence to S. gordonii and biofilm formation
Method: Using the two species biofilm model described by Patil et al. ([19]), the in vitro effectiveness of the compounds was determined by their ability to inhibit P. gingivalis adherence to S. gordonii and subsequent biofilm formation at an initial concentration of 40 μM.
To quantify P. gingivalis adherence to S. gordonii, a two-species biofilm model was employed as previously described ([19], [33]). Briefly, 20 ml of an overnight culture of S. gordonii was centrifuged at 5600 × g (MIKRO 220R, Hettich Zentrifugen) for 10 min, and the harvested cells were washed with phosphate-buffered saline (PBS; 10 mM Na2HPO4, […], […], and 2.7 mM KCl [pH 7.2]). To label S. gordonii, the cell pellet was suspended in 1 ml of PBS containing 20 μl of 5 mg/ml of hexidium iodide (Molecular Probes; Eugene, OR) and incubated in the dark for 15 min at room temperature with gentle shaking. The labeled cells were than centrifuged at 5600 × g for 5 min and washed twice with PBS. Finally, the cells were suspended in PBS to a final optical density at 600 nm (OD600) of 0.6, and 1 ml of labeled S. gordonii cells was added to each well of a 12-well microtiter plate (Greiner Bio-one, Monroe, NC) containing a circular coverslip (Fisher Scientific, Hampton, NH). Plates were incubated at 37°C for 24 h under anaerobic conditions on a rotary shaker. On the following day, cells from a 10-ml overnight P. gingivalis culture were harvested as described above and fluorescent labeling was performed by incubating the cells in 1 ml PBS containing 20 μl of 5(6)-carboxyfluorescein N-hydroxysuccinimide ester (4 mg/ml) (Thermo Fisher, Waltham, MA) for 30 min in the dark at room temperature with gentle shaking. After being washed two times with PBS, the labeled cells were suspended in PBS at a final OD600 of 0.4. While this reaction was carried out, unattached S. gordonii cells were removed from each well by aspiration, and subsequently, 1 ml of labeled P. gingivalis cells alone or with the desired concentration of the compounds to be tested was added to each well of the microtiter plates. Plates were incubated at 37°C for 24 h under anaerobic conditions. The compounds that were tested were initially dissolved in dimethyl sulfoxide (DMSO) to generate a 1,000× stock solution and subsequently diluted in the cell suspensions to obtain the working concentration. For the control wells, DMSO without a test compound was added to a final concentration of 0.1% in order to maintain a constant DMSO concentration in all wells.
Unbound P. gingivalis cells were removed from each well by aspiration, and the coverslips were washed twice with 5 ml of PBS. Biofilms were then fixed with 4% paraformaldehyde for 5 min in the dark and washed two times with 5 ml of PBS. The coverslips were mounted on a glass slide (Sigma-Aldrich) containing a drop of Prolong gold anti-fade agent (Molecular Probes, Eugene, OR) and sealed with transparent nail polish.
Visualization of the biofilms was carried out by laser scanning confocal microscopy using an SP8 confocal microscope (Leica Microsystems, Inc., Buffalo Grove, IL), with the laser source settings at 488 nm and 552 nm to visualize P. gingivalis and S. gordonii, respectively. Images were collected using a Z plane scan for a depth of 25 μm using a Z step thickness of 0.7 μm. Background noise was reduced using the software that was supplied with the Leica SP8 microscope. Three-dimensional reconstruction of the Z plane scans and quantification of the red and green channel fluorescence were performed using Volocity 6.3 image analysis software (PerkinElmer, Waltham, MA).

HL60 cells [3] = assay: total cellular ATP (CellTiterGlo); format: cell-based, human; conditions: HL-60 cells, 5, 20 and 40 μM, 18 h
Method: (§1) To determine the metabolic activity of cells, the total cellular ATP level was measured in cell culture samples using the CellTiterGlo reagent (Promega Inc. Madison, WI). Cells were grown as described above in the presence of the desired concentration of compounds. The spent medium was decanted, and cells were washed three times with PBS and subsequently incubated with 100 μl of the CellTiterGlo substrate. To facilitate the reaction, plates were incubated at room temperature for 2 min with shaking and for an additional 10 min without shaking. Total light production was measured using a Victor 3 multilabel plate reader (PerkinElmer).

J774A.1 cells = assay: total cellular ATP (CellTiterGlo); format: cell-based, mouse; conditions: J774A.1 cells, 5, 20 and 40 μM, 18 h
Method: as §1

Row | Structure (SMILES) | Early apoptosis (%) (TIGK cells; 5 μM) | Late apoptosis/necrosis (%) (TIGK cells; 5 μM) | Live cells (%) (TIGK cells; 5 μM) | Early apoptosis (%) (TIGK cells; 20 μM) | Late apoptosis/necrosis (%) (TIGK cells; 20 μM) | Live cells (%) (TIGK cells; 20 μM) | Early apoptosis (%) (TIGK cells; 40 μM) | Late apoptosis/necrosis (%) (TIGK cells; 40 μM) | Live cells (%) (TIGK cells; 40 μM) | Early apoptosis (%) (HL60 cells [1]; HL60, 5 μM) | Late apoptosis/necrosis (%) (HL60 cells [1]; HL60, 5 μM) | Live cells (%) (HL60 cells [1]; HL60, 5 μM) | Early apoptosis (%) (HL60 cells [1]; HL60, 20 μM) | Late apoptosis/necrosis (%) (HL60 cells [1]; HL60, 20 μM) | Live cells (%) (HL60 cells [1]; HL60, 20 μM) | Early apoptosis (%) (HL60 cells [1]; HL60, 40 μM) | Late apoptosis/necrosis (%) (HL60 cells [1]; HL60, 40 μM) | Live cells (%) (HL60 cells [1]; HL60, 40 μM) | dose-dependent inhibition of P. gingivalis adherence and biofilm formation [2] | inhibition at 40 µM [2] | other results
1 | Cl.N=c1n(CCN2CCCCC2)c2ccccc2n1CC(O)COc1ccc(Cl)cc1 (centres unmarked) [N7, 1-(4-chlorophenoxy)-3-{2-imino-3-[2-(piperidin-1-yl)ethyl]-2,3-dihydro-1H-1,3-benzodiazol-1-yl}propan-2-ol hydrochloride] | 2.4% | 8.3% | 86.8% | 1.0% | 14.9* % | 74.5% | 5.9% | 40.7* % | 48.3% | 3.6% | 7.8% | 87.4% | 20.9% | 43.9% | 27.3% | 7.7% | 70.8% | 18.9% | inhibited P. gingivalis adherence and biofilm formation in a dose-dependent manner | 40% | –
2 | O=C(Nc1ccccc1O)c1cccc(N2C(=O)c3ccc(C(=O)Nc4ccccc4O)cc3C2=O)c1 [N17, N-(2-hydroxyphenyl)-2-{3-[(2-hydroxyphenyl)carbamoyl]phenyl}-1,3-dioxo-2,3-dihydro-1H-isoindole-5-carboxamide] | 2.9% | 4.2% | 90.7% | 2.4% | 3.6% | 92.4% | 1.5% | 5.1% | 91.6% | 2.7% | 4.7% | 91.3% | 2.2% | 6.0% | 90.3% | 2.3% | 6.3% | 91.6% | inhibited P. gingivalis adherence and biofilm formation in a dose-dependent manner | 60% | ATP levels (HL60 cells [3]): no significant effect; IC50 ([2]; Porphyromonas gingivalis, read-out: 50% inhibitory concentration (IC50) of P. gingivalis adherence in vitro): ~18 µM; ATP levels (J774A.1 cells): no significant effect
3 | Cc1cc([C@H]2CCCN(CC(=O)NC3(C#N)CCCC3)C2)n[nH]1 [V8, N-(1-cyanocyclopentyl)-2-[3-(5-methyl-1H-pyrazol-3-yl)piperidin-1-yl] acetamide] | 3.1% | 4.2% | 91.6% | 2.1% | 3.5% | 92.8% | 2.4% | 3.4% | 92.8% | 2.9% | 5.6% | 91.8% | 3.7% | 5.0% | 91.3% | 2.4% | 6.7% | 88.4% | inhibited P. gingivalis adherence and biofilm formation in a dose-dependent manner | ≥ 40% | ATP levels (HL60 cells [3]): no significant effect; ATP levels (J774A.1 cells): no significant effect
